“Also recorded” adds a separate entry of the source.
Legend:
ER in MCF-7 cells = test: ERE luciferase reporter, ER dependent transcription; type: cell-based, human
[1] = test system: ER, EGF-R, HER-2/neu, MAPK and AKT in MCF-7/HER-218 cells; test: Phosphorylation analysis by western immunoblotting; details: for Phosphorylation of EGF-R, HER-2/neu and MAPK / Phosphorylation of ER on serine 118: short-term (20 minutes)
Protocol: (§2) Treatments of cells with E2, 4HOT, EGF or HRG were conducted after cells were starved in phenol red-free, serum-free IMEM for 24 hr.
(§3) Treated cells were then immediately harvested. Cells were first rinsed twice with cold PBS, and lysed in 1×cell lysis buffer (Cell Signaling Technology) supplemented with 10% Glycerol, 1 mM Pherryl Methylsulfonyl Fluoride (PMSF), 1×Complete Protease inhibitor mixture (Roche, Indianapolis, Ind.), 1 μM Okadaic acid, 10 μg/mL Microsystin as instruction from Cell Signaling Technology. Protein concentration was measured by Bio-Rad Protein Assay kit (Bio-Rad, Hercules, Calif.) according to manufacturer's instruction. 20 μg of protein extracts from individual treatments were electrophoresized on SDS-PAGE gel (Invitrogen), and electroblotted to nitrocellulose membrane (Millipore, Bedford, Mass.). Membranes were blocked with blocking buffer (5% w/v nonfat dry milk in 1×TBS with 0.1% Tween-20, TBST) for 1 hr and then incubated with primary antibody in 5% BSA TBST (for all phospho antibodies with gentle agitation overnight at 4° C., otherwise in blocking buffer for 2 hrs at room temperature). After washing and incubating with secondary horseradish peroxidase conjugated antibodies against mouse or rabbit IgG (Amershan, Arlington Heoghts, Ill. Immunoreactive proteins were detected by the ECL (Amershan). Quantitation was performed by using NIH Imagine Software.

MCF-7/HER-218 tumors = test: Athymic nude mouse model, MCF-7/HER-218 tumor growth; type: in vivo, mice; details: continued estrogen, or estrogen withdrawal plus tamoxifen, compared to estrogen withdrawal alone
Protocol: Ovariectomised female BALB/c-nu+/nu+ mice 4-5 weeks of age were purchased from Harlan Sprague-Dawley (Madison, Wis.). […] Estrogen pellets (0.25 mg, 21 day release) were purchased from Innovative Research (Rockville, Md.) and half a pellet placed subcutaneously in the interscapular area of each animal on the day prior to cell injection. MCF-7/HER-218 cells were grown in 150 cm^3 flasks and split 1:5 in DMEM (Invitrogen, Calif.) supplemented with 10% FBS. When flask cell confluence reached 90-100%, cells were harvested using a soft rubber scraper, then spun down at 1000 rpm for 3 minutes, and resuspended in the original media for injection. Cells were injected at 5×10^6−1×10^7 in 0.2 ml per animal in the right mammary fat pad. […] Each individual group had 8 animals (n=8). […] Tumors were subsequently measured weekly and recorded according to the formula: Tumor volume=width^2×length/2. Animal were weighed every 2 weeks and monitored for toxicity. Tumor growth curves were constructed using the mean of tumors' volume at each measurement point with the error bars representing the standard error of the mean. Student's t-test was used to compare data between two groups. Values are expressed as relative to tumor volume to size at the beginning of treatment as mean ±s.d.

[2] = test system: estrogen responsive genes in MCF-7/HER-218 cells; test: Endogenous estrogen responsive gene induction (immunoblot); details: for Protein expression of endogenous estrogen responsive genes: 12 hr induction
Excerpt: (§4) The cellharvest, cell extraction preparation and immunobloting were as above.

MCF-7/HER-218 cells = test: S-phase fraction of cells; type: cell-based, human; details: agent alone
[3] = test system: pS2 promoter in MCF-7 cells; test: Chromatin immunoprecipitation on the pS2 promoter; details: 20 minute incubation
Protocol: (§5) Wild type MCF7 and HER-2-18 cells were grown to 90% confluence in phenol red-free IMEM supplemented with 10% CDS FBS for 7 days, the cells were starved completely with phenol red-free IMEM (without serum) for overnight. […] Cells were pelleted and lysis in 1 ML SDS lysis buffer and incubated on ice for 10 min. Lysate was sonicated by three times for 10 sec. at maximum setting followed by centrifugation for 10 min at 4 C. 200 ul of supernatant was, subjected to each immunoprecipitation with specific antibody, diluted with ChIP dilution buffer 10 fold and pre-cleared with 80 ul of SS-DNA/Protein A/G agarose plus 20 ul of normal mouse or rabbit IgG (Santa Cruz) depending on primary antibody used afterward for 4 hrs at 4 C. The beads were collected and saved as normal IgG control. The pre-cleared supernatant was immunoprecipitated with antibodies against ER, or AIB1, or NcoR, or Act-H3, respectively at 4° C. for overnight, followed by SS-DNA/Protein A/G at 4 C. for 1 hr. Pellet agarose by gentle centrifugation (1000 rpm, 1 min, 4° C.). The pellets were intensively washed sequentially as follows in 1 ml volume: low salt wash buffer X 1 time, high salt wash buffer X 1 time, LiCl salt wash buffer X 1 time, TE X 2 times. […]

MCF-7 cells = test: S-phase fraction of cells; type: cell-based, human; details: agent alone
[4] = test system: phosphorylated MAPK, AIB1; test: Immunoblot of MCF-7/HER-218 tumors from treated mice
Protocol: Treated cells were then immediately harvested. Cells were first rinsed twice with cold PBS, and lysed in 1×cell lysis buffer (Cell Signaling Technology) supplemented with 10% Glycerol, 1 mM Pherryl Methylsulfonyl Fluoride (PMSF), 1×Complete Protease inhibitor mixture (Roche, Indianapolis, Ind.), 1 μM Okadaic acid, 10 μg/mL Microsystin as instruction from Cell Signaling Technology. […] 20 μg of protein extracts from individual treatments were electrophoresized on SDS-PAGE gel (Invitrogen), and electroblotted to nitrocellulose membrane (Millipore, Bedford, Mass.). Membranes were blocked with blocking buffer (5% w/v nonfat dry milk in 1×TBS with 0.1% Tween-20, TBST) for 1 hr and then incubated with primary antibody in 5% BSA TBST (for all phospho antibodies with gentle agitation overnight at 4° C., otherwise in blocking buffer for 2 hrs at room temperature). After washing and incubating with secondary horseradish peroxidase conjugated antibodies against mouse or rabbit IgG (Amershan, Arlington Heoghts, Ill. Immunoreactive proteins were detected by the ECL (Amershan). Quantitation was performed by using NIH Imagine Software.

[5] = test system: ER, EGF-R, HER-2/neu, MAPK and AKT in parental MCF-7 cells; test: Phosphorylation analysis by western immunoblotting; details: for Phosphorylation of EGF-R and HER-2/neu / Phosphorylation of ER on serine 118 / Phosphorylation of MAPK and AKT: short-term (20 minutes)
Protocol: as §2, §3

[6] = test system: AIB1 in MCF-7/HER-218 cells; test: Western blot mobility shift of AIB1; type: cell-based, human
Protocol: (§1) In PPase treatment group, cell extracts were incubated with PPase prior to analysis as previously described. Antibody against AIB1 was used.

[7] = test system: pS2 promoter in MCF-7/HER-218 cells; test: Chromatin immunoprecipitation on the pS2 promoter; details: 20 minute incubation
Protocol: as §5

primary breast cancer = test: Five-year disease-free survival of node-positive breast cancer patients on tamoxifen adjuvant therapy, by AIB1 and HER-2 status; type: in vivo, human
Protocol: Frozen tumor specimens from 316 patients, all of whom had positive axillary lymph nodes at the time of initial surgery, were selected for study. Such patients have higher recurrence rates after primary treatment, resulting in more events for statistical power. […] The median follow-up for patients still living is 95 months. Proteins from 30 mg of tissue were extracted in 300 μl 5% SDS at 90° C. for 5 minutes. Protein concentration was determined using the BCA method (Pierce, Rockford, Ill.); typical yields were 2-5 μg/μl. Samples were stored at −70° C. until use.
Assays were performed and results quantified by an investigator blinded to clinical information. 20 μg of extracted protein in sample buffer (0.05 M tris, pH 6.8, containing 2% SDS, 2.5% β-mercaptoethanol, 10% glycerol, and 0.1% bromphenol blue as tracking dye) were placed in boiling water for 2 minutes, cooled to room temperature, and centrifuged for 1 minute. An MCF-7 reference standard (5 μg protein per lane) was included on each gel as a normalization control. Proteins were electrophoresed on 8% Tricine-Glycine polyacrylamide gels (Invitrogen, Carlsbad, Calif.) and then transferred onto nitrocellulose. Blots were rinsed 5 minutes with TBS (TRIS-buffered saline: 100 mM TRIS, pH 7.5, and 0.9% NaCl) containing 0.1% Tween-20 (TBST). After blocking with 5% nonfat dry milk in TBST, the blots were incubated overnight at 4° C. in the primary antibody (1:1000 rabbit anti-RAC3 antiserum). This antibody was raised in rabbits against a MBP fusion protein containing amino acid residues 582-842 of human RAC3 (AIB1).
The blots were washed 3 times in TBST, followed by incubation for 1 hour in 5% nonfat dry milk in TBST and 1:5000 horseradish peroxidase labeled anti-rabbit Ig (Amersham, Piscataway, N.J.). The blots were washed 5 times in TBST, after which the labeled protein was visualized on a FluorChem digital imaging system (Alpha Innotech, San Leandro, Calif.) using an enhanced chemiluminescence detection system. Band intensities were measured densitometrically using the AlphaEaseFC software (Alpha Innotech, San Leandro, Calif.). AIB1 levels in tumors were normalized to the AIB1 concentration in the MCF-7 positive control lysate (5 μg) from the same immunoblot.
ER and progesterone receptors (PR) were measured by ligand binding assays as described by Harvey et al., 1999. S-phase fraction was calculated by DNA flow cytometry and classified as low, intermediate, or high (Wenger et al, 1998). Immunohistochemistry was used to semiquantitatively measure p53 and bcl 2 expression, and HER-2 expression was determined by western blot analyses as described by Elledge et al., 1997, and Tandon et al., 1989.
Associations between AIB1, steroid receptors, HER-2 and other molecular markers, and clinical variables were assessed using Spearman rank correlation. The disease-free survival (DFS) was calculated from the date of diagnosis. First recurrence (local or distant) was scored as an event, and patients without recurrence were censored at the time of last follow-up or death, meaning that an event of interest (e.g., recurrence or death) has not yet occurred. For graphical presentation, follow-up was truncated at 120 months. Overall survival was calculated from the date of diagnosis, with death from any cause being scored as an event. Patients who were alive at the last follow-up were censored at the last follow-up date. Survival curves were derived from Kaplan-Meier estimates, which are well known in the art, and the curves were compared by log-rank tests. Initially, separate analyses were performed for treated and untreated patients. The influence of AIB1 adjusted for other prognostic factors was assessed in multivariate analysis by Cox proportional hazards models.

[8] = test system: HER-2/neu and MAPK in BT474 cells; test: Phosphorylation analysis by western immunoblotting; details: 20 minute treatment
Protocol: as §3

[9] = test system: estrogen responsive genes in wild-type MCF-7 cells; test: Endogenous estrogen responsive gene induction (immunoblot); details: 12 hr induction
Excerpt: as §4

parental MCF-7 tumors = test: Parental MCF-7 tumor growth; type: in vivo, mice; details: wild-type MCF-7, tamoxifen
[10] = test system: ER in MCF-7/HER-218 cells; test: ERE luciferase reporter, ER dependent transcription; type: cell-based, human
AIB1 in MCF-7 cells = test: Western blot mobility shift of AIB1; type: cell-based, human; details: reversed by phosphatase treatment
Protocol: as §1

Molecule: CC/C(=C(\c1ccccc1)c1ccc(OCCN(C)C)cc1)c1ccccc1 [tamoxifen]
- ERE luciferase activity (ER in MCF-7 cells; agent alone): no agonist activity
- MAPK phosphorylation ([1]; 48 hour treatment): striking effects
- Phosphorylation of ER ([1]; 48 hour treatment): still evident
- Phosphorylation of EGF-R, HER-2/neu and MAPK [1]: phosphorylation was detected
- Phosphorylation of ER on serine 118 [1]: phosphorylated
- Tumor growth (MCF-7/HER-218 tumors): increased tumor growth; also recorded: stimulated
- Protein expression of endogenous estrogen responsive genes [2]: behaved as an estrogen agonist on all of the genes
- Fraction of cells in S-phase (MCF-7/HER-218 cells): stimulated the fraction of cells in S-phase
- Occupancy of the pS2 promoter [3]: induced occupancy of this promoter by ER but not by AIB1
- Percent of cells in S-phase (MCF-7 cells): no agonist effect
- Total and phosphorylated AIB1 in tumors ([4]; MCF-7/HER-218 tumors of treated mice): induced; also recorded: both higher
- Tumor level of phosphorylated (active) MAPK ([4]; estrogen, or estrogen withdrawal plus tamoxifen, versus estrogen withdrawal alone): activate MAPK and high
- MAPK phosphorylation ([5]; 48 hour treatment): no effect
- Phosphorylation of ER ([5]; 48 hour treatment): still evident
- Phosphorylation of EGF-R and HER-2/neu [5]: could not detect phosphorylation
- Phosphorylation of ER on serine 118 [5]: phosphorylate
- Phosphorylation of MAPK and AKT [5]: could not detect phosphorylation
- AIB1 phosphorylation (mobility shift of AIB1 band) [6]: phosphorylation of AIB1 was observed
- Occupancy of the pS2 promoter [7]: induced occupancy of the pS2 promoter by ER and by AIB1
- 5 yr DFS (primary breast cancer; High HER-2 (grade 2-4), High AIB1 (top quartile)): 42%
- 5 yr DFS (primary breast cancer; High HER-2 (grade 2-4), High AIB1 (top quartile), listed as Tamoxifen): 42%
- 5 yr DFS (primary breast cancer; High HER-2 (grade 2-4), Low AIB1 (lower 3 quartiles)): 77%
- 5 yr DFS (primary breast cancer; High HER-2 (grade 2-4), Low AIB1 (lower 3 quartiles), listed as Tamoxifen): 77%
- 5 yr DFS (primary breast cancer; Low HER-2 (grade 0-1), High AIB1 (top quartile)): 82%
- 5 yr DFS (primary breast cancer; Low HER-2 (grade 0-1), Low AIB1 (lower 3 quartiles)): 64%
- 5-year DFS (primary breast cancer; other three groups combined (not high AIB1 and high HER-2)): 70%
- Phosphorylated HER-2/neu and MAPK [8]: striking increase
- Protein expression of endogenous estrogen responsive genes [9]: no agonist activity
- Tumor growth (parental MCF-7 tumors): inhibited
- ERE luciferase activity above control ([10]; agent alone): inability

Molecule: EGF: epidermal growth factor purchased from Invitrogen (NSDSECPLSHDGYCLHDGVCMYIEALDKYACNCVVGYIGERCQYRDLKWWELR; Epidermal growth factor; UniProt P01133 971-1023, looked up)
- Phosphorylation of EGF-R, HER-2/neu and MAPK [1]: phosphorylation was detected
- Phosphorylation of ER on serine 118 [1]: phosphorylated
- Phosphorylation of EGF-R and HER-2/neu [5]: unable to detect phosphorylation
- Phosphorylation of ER on serine 118 [5]: phosphorylate
- Phosphorylation of MAPK and AKT [5]: did phosphorylate MAPK and AKT

Molecule: heregulin
- ERE luciferase activity (ER in MCF-7 cells; heregulin added to estrogen): two fold
- ERE luciferase activity (ER in MCF-7 cells; heregulin added to tamoxifen): increase luciferase activity a small amount
- Phosphorylation of EGF-R, HER-2/neu and MAPK [1]: phosphorylation was detected
- Phosphorylation of ER on serine 118 [1]: phosphorylated
- Protein expression of endogenous estrogen responsive genes [2]: dramatic effects on several of these genes
- Level of IRS1 ([2]; heregulin): large increase
- Protein expression of progesterone receptor ([2]; heregulin): increased
- Fraction of cells in S-phase (MCF-7/HER-218 cells): stimulated the fraction of cells in S-phase
- Percent of cells in S-phase (MCF-7 cells): markedly increased the S-phase fraction
- Phosphorylation of EGF-R and HER-2/neu [5]: strongly phosphorylated
- Phosphorylation of ER on serine 118 [5]: phosphorylate
- Phosphorylation of MAPK and AKT [5]: strongly phosphorylated
- AIB1 phosphorylation (mobility shift of AIB1 band) [6]: phosphorylation of AIB1 was observed
- AIB1 phosphorylation (mobility shift of AIB1 band) (AIB1 in MCF-7 cells): upshifted the AIB1 band
- Protein expression of endogenous estrogen responsive genes [9]: induced the expression of all of the genes except for progesterone receptor
- ERE luciferase activity in response to both estrogen and tamoxifen ([10]; heregulin added): remarkably enhanced luciferase activity
- Estrogen agonist properties of tamoxifen (luciferase) ([10]; heregulin added to tamoxifen): levels above estrogen alone
